The text below walks through data of article PMC11720106, “Synthesis of Pyrazole-Based Inhibitors of the Bacterial Enzyme N-Succinyl-L,L-2,6-Diaminopimelic Acid Desuccinylase (DapE) as Potential Antibiotics” (International Journal of Molecular Sciences, 2024).

In experiment [1] the target is T1, HiDapE (Haemophilus influenzae, UniProt P44514). Briefly: Discontinuous ninhydrin-based HiDapE inhibition assay. Format: biochemical. Conditions: 8 nM HiDapE, 2 mM N6-methyl-L,L-SDAP; for IC50: 5–200 μM inhibitor; for inhibition at 100 µM: pH 7.5, 100 μM inhibitor. Here is the method:
Inhibitory Assay Protocol: A discontinuous inhibition assay was performed utilizing a Techne PCR Thermal Cycler System. The volume of each component was adjusted to fit a total reaction volume of 100 μL. The final potential inhibitor concentration was 100 μM for pyrazoles 7a–7r for screening experiments or 5–200 μM for IC50 experiments. All potential inhibitors were dissolved in neat dimethylsulfoxide (DMSO), and the pre-assay concentrations were adjusted to give a final concentration of 5% DMSO in the assay. The final HiDapE concentration was 8 nM. To a 50 mM HEPES (pH 7.5) buffered solution at 30 °C was added the selected inhibitor followed by HiDapE and incubated for 10 min. N^6-Methyl-L,L-SDAP (2 mM) was added, and the mixture was allowed to react for 10 min, followed by heating at 100 °C for 1 min and then cooled to 0 °C for 1 min. A 2% ninhydrin solution (100 μL) was added, and the mixture was mixed well by rapid pipetting while cooled at 0 °C. The reaction was then heated at 80 °C for 15 min. The absorbance of an 80 μL aliquot was recorded at 570 nm on a BioTek Synergy 2 microplate reader (Biotek Instruments, Winooski, VT, USA). All inhibition assays were performed in triplicate. The data were then exported and analyzed using Prism (version 10.4.1, GraphPad Prism, Boston, MA, USA).

Experiment [2] addresses T1, HiDapE. Briefly: Discontinuous kinetic competition assay with HiDapE. Format: biochemical. Here is the method:
We performed kinetic competition assays to investigate and confirm the binding mode of the pyrazole inhibitors. […] The velocity of the HiDapE enzyme was measured with different concentrations of substrate from 0 to 100 μM, and the plot is shown in Figure 2. After running the AICc statistical analysis to compare noncompetitive and competitive models, it was determined that a competitive binding mode is over 100 times more likely than noncompetitive binding with a 99.2% probability.
Kinetic assay Protocol: A discontinuous kinetic assay was performed utilizing a Techne PCR Thermal Cycler System. The volume of each component was adjusted to fit a total reaction volume of 100 μL. The final potential inhibitor concentration was 0, 20, 40, 60, and 100 μM for pyrazole 7r, where the inhibitor was dissolved in dimethylsulfoxide (DMSO), and the pre-assay concentrations were adjusted to give a final concentration of 5% DMSO in the assay. The in-assay HiDapE concentration was 8 nM. To a 50 mM HEPES (pH 7.5) buffered solution at 30 °C was added the selected inhibitor followed by HiDapE and incubated for 10 min. N^6-Methyl-L,L-SDAP at varied concentrations (0–8 mM) were added, and the mixture was allowed to react for 10 min, followed by heating at 100 °C for 1 min and then cooled to 0 °C for 1 min. A 2% ninhydrin solution (50 μL) was added, and the mixture was mixed well by rapid pipetting while cooled at 0 °C. The reaction was then heated at 80 °C for 15 min. The absorbance of an 80 μL aliquot was recorded at 570 nm on a BioTek Synergy 2 microplate reader. All concentrations were performed in triplicate. The data were then exported and analyzed using Prism using a non-linear regression Michaelis–Menten equation and using AICc statistical analysis to determine which inhibitory binding mode was preferred.

The target in experiment [3] is T1, HiDapE. Briefly: Thermal shift assay (SYPRO Orange). Format: binding. Conditions: for Tm1 (HiDapE): 200 nM enzyme, 10X dye. On the procedure: A thermal shift assay was conducted to observe changes in the thermal stability of DapE under various concentrations of the inhibitor (R)-7q, as summarized in Table 2. These studies were conducted on a Step One Real-Time PCR System^TM (Applied Biosystems, Waltham, MA, USA) and associated QuantStudio software (Version 7) through the fluorescence of the SYPRO Orange dye (Fisher Scientific, Waltham, MA, USA) during protein denaturation. We also used the thermal shift assay results to calculate the Ki value of pyrazole (R)-7q. […] Additionally, we observed a subsequent Tm2 at 78.0 °C involving a destabilization of the enzyme, as shown by the approximate −3 °C negative shift in melt temperature as the inhibitor increases in concentration, indicating at this elevated temperature that the inhibitor is binding to primarily the molten globule state. We have previously observed the second melt temperature with the DapE enzyme.
Thermal Shift Assay Protocol: Thermal shift studies were conducted on a Step One Real-Time PCR System and the associated QuantStudio software. Protein denaturation was measured by detecting the change in fluorescence of the SYPRO Orange dye. HiDapE was used at a final concentration of 200 nM, and SYPRO Orange was used at a final concentration of 10×. The experiment was carried out in 10 μL triplicates in 50 mM HEPES buffer at pH 7.5 in nanopure water, and the inhibitor concentrations were selected based on the half-maximal inhibitory concentration (IC50) values of the inhibitor. Sample solutions were dispensed into a 96-well optical reaction plate (Thermo Fisher Scientific, Kalamazoo, MI, USA), and the plate was sealed with an optical PCR plate sheet (Thermo Fisher Scientific, Kalamazoo, MI, USA). The assay was run according to Bhayani. Melting curves were obtained from the negative derivative and exported from the instrument to Microsoft Excel (Version 2402). The negative first derivatives of the melting curves were differentiated into the […]. Tm values were plotted against the log [concentration], and the Ki values were calculated using a derived Van’t Hoff equation according to Bhayani

Several values for one entry are separate records, joined by “and”; a condition that tells them apart may be missing. Identical values can stand only once.

T1 sequence (P44514 whole entry): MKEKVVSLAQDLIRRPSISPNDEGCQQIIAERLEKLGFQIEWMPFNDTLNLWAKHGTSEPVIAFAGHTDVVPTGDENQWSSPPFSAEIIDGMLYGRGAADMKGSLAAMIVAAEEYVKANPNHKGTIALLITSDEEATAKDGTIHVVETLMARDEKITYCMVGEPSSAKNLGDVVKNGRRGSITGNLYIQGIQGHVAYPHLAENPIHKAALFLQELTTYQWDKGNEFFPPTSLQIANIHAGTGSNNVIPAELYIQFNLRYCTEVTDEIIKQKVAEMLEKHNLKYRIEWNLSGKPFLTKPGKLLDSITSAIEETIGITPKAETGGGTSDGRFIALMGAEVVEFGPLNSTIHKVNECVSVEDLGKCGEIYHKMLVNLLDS

One may read the IC50 as the concentration that gives 50% inhibition. A word on the inhibition: it is the change of the read-out against control, counted positive when it falls. For `Cc1cc(SCC(=O)Nc2nccs2)n(-c2ccccc2)n1` [Compound 7a, 2-((3-Methyl-1-phenyl-1H-pyrazol-5-yl)thio)-N-(thiazol-2-yl)acetamide], the IC50 at HiDapE [1] (pH 7.5) was 22.4 µM. Further, at HiDapE [1] (triplicate), the inhibition at 100 µM came out at 95.2 ± 0.6%.
With `Cc1cc(SCC(=O)Nc2ccon2)n(-c2ccccc2)n1` [Compound 7b, N-(Isoxazol-3-yl)-2-((3-methyl-1-phenyl-1H-pyrazol-5-yl)thio)acetamide], the inhibition at 100 µM on HiDapE [1] (triplicate) was 20.3 ± 3.6%.
Turning to `Cc1cc(SCC(=O)Nc2ccccc2)n(-c2ccccc2)n1` [Compound 7c, 2-((3-Methyl-1-phenyl-1H-pyrazol-5-yl)thio)-N-phenylacetamide], on HiDapE [1] (triplicate), the inhibition at 100 µM was found to be 80.5 ± 3%.
For `Cc1cc(SCC(=O)Nc2ccccn2)n(-c2ccccc2)n1` [Compound 7d, 2-((3-Methyl-1-phenyl-1H-pyrazol-5-yl)thio)-N-(pyridine-2-yl)acetamide], the IC50 on HiDapE [1] (pH 7.5) is 17.9 µM. Besides, the inhibition at 100 µM on HiDapE [1] (triplicate) turned out to be 85.7 ± 1.2%.
In the case of `Cc1ccc(NC(=O)CSc2cc(C)nn2-c2ccccc2)nc1` [Compound 7e, 2-((3-Methyl-1-phenyl-1H-pyrazol-5-yl)thio)-N-(5-methylpyridin-2-yl)acetamide], at HiDapE [1] (triplicate), the inhibition at 100 µM came to 64.3 ± 5.5%.
Same read-out and setting: the result for `Cc1cc(SCC(=O)Nc2ccc(Cl)cn2)n(-c2ccccc2)n1` [Compound 7f, N-(5-Chloropyridin-2-yl)-2-((3-methyl-1-phenyl-1H-pyrazol-5-yl)thio)acetamide] reads 54.2 ± 0.3%; that for `Cc1cc(SCC(=O)Nc2ncccn2)n(-c2ccccc2)n1` [Compound 7g, 2-((3-Methyl-1-phenyl-1H-pyrazol-5-yl)thio)-N-(pyrimidin-2-yl)acetamide], 32.4 ± 3.4%.
For the compound `Cc1cc(SCC(=O)Nc2cnccn2)n(-c2ccccc2)n1` [Compound 7h, 2-((3-Methyl-1-phenyl-1H-pyrazol-5-yl)thio)-N-(pyrazin-2-yl)acetamide], at HiDapE [1] (pH 7.5), the IC50 was 20.2 µM. Also, on HiDapE [1] (triplicate), the inhibition at 100 µM is 96.2%.
`CCN(CC)C(=O)CSc1cc(C)nn1-c1ccccc1` [Compound 7j, N,N-Diethyl-2-((3-methyl-1-phenyl-1H-pyrazol-5-yl)thio)acetamide]: the inhibition at 100 µM at HiDapE [1] (triplicate) stood at 47.4 ± 7.2%.
Still for that read-out and setting: the result for `Cc1cc(SCC(=O)Nc2nc3ccccc3[nH]2)n(-c2ccccc2)n1` [Compound 7k, N-(1H-Benzo[d]imidazol-2-yl)-2-((3-methyl-1-phenyl-1H-pyrazol-5-yl)thio)acetamide] reads 36.9 ± 2.7%; that for `Cc1cc(SC(C)C(=O)Nc2nccs2)n(-c2ccccc2)n1` (centres unmarked) [Compound 7l, 2-((3-Methyl-1-phenyl-1H-pyrazol-5-yl)thio)-N-(thiazol-2-yl)propanamide], 28 ± 1.8%; that for `Cc1cc(SC(C)C(=O)Nc2ccon2)n(-c2ccccc2)n1` (centres unmarked) [Compound 7m, N-(Isoxazol-3-yl)-2-((3-methyl-1-phenyl-1H-pyrazol-5-yl)thio)propanamide], 19.5 ± 0.1%.
Still for that read-out and setting: as for `Cc1cc(SC(C)C(=O)Nc2ccccc2)n(-c2ccccc2)n1` (centres unmarked) [Compound 7n, 2-((3-Methyl-1-phenyl-1H-pyrazol-5-yl)thio)-N-phenylpropanamide], the figure is 79.4 ± 3.6%; as for `Cc1cc(SC(C)C(=O)NCc2ccccc2)n(-c2ccccc2)n1` (centres unmarked) [Compound 7o, N-Benzyl-2-((3-methyl-1-phenyl-1H-pyrazol-5-yl)thio)propanamide], 63.2 ± 1.8%.
Turning to `Cc1cc(SC(C)C(=O)Nc2ccccn2)n(-c2ccccc2)n1` (centres unmarked) [Compound 7p, 2-((3-Methyl-1-phenyl-1H-pyrazol-5-yl)thio)-N-(pyridine-2-yl)propanamide], the IC50 on HiDapE [1] (pH 7.5) is 35.6 µM and 35.7 µM. Further, on HiDapE [1] (triplicate), the inhibition at 100 µM is 97.4 ± 2%.
Usually % Inhibition stands for the percentage by which the read-out fell short of the control. A word on the Tm: it is the temperature at the midpoint of the melting transition. One may read the Ki as the dissociation constant of the complex between target and ligand, obtained from inhibition or displacement. For `Cc1cc(S[C@H](C)C(=O)Nc2ccccn2)n(-c2ccccc2)n1` [Compound 7q, (R)-2-((3-Methyl-1-phenyl-1H-pyrazol-5-yl)thio)-N-(pyridine-2-yl)propanamide], the “% Inhibition at 100 μM” value at HiDapE [1] (100 μM inhibitor, pH 7.5, triplicate) stood at 99.1 ± 1.6%. The IC50 on HiDapE [1] (pH 7.5) is 18.8 µM. Further, at HiDapE [1] (triplicate), the inhibition at 100 µM came out at 99%. In addition, the “binding mode (mode of inhibition)” value on HiDapE [2] (AICc comparison of competitive and noncompetitive models) is listed as “competitive”. Besides, the “likelihood of competitive over noncompetitive binding” value at HiDapE [2] (AICc statistical analysis) is listed as “over 100 times”. Also, at HiDapE [2] (AICc statistical analysis), the “probability of competitive binding mode” value is recorded as 99.2%. The “Tm1 (HiDapE)” value is 50.8 +/− 0.6 °C on HiDapE [3] (1 μM inhibitor); 50.1 +/− 0.1 °C on HiDapE [3] (5 μM inhibitor); 50.2 +/− 0.1 °C at HiDapE [3] (10 μM inhibitor); 52.7 +/− 0.3 °C on HiDapE [3] (20 μM inhibitor); 55.7 +/− 0.3 °C on HiDapE [3] (40 μM inhibitor); 60.6 +/− 0.7 °C at HiDapE [3] (60 μM inhibitor). For the same compound, the entries for the “Tm1 (HiDapE)” value at HiDapE [3] (80 μM inhibitor) and at HiDapE [3] (100 μM inhibitor) were 61.3 +/− 0.5 °C and 63.1 +/− 0.2 °C, respectively. Moreover, on HiDapE [3] (as stated in the abstract), the Tm is 50.2 °C. Further, the Ki at HiDapE [3] (calculated from positive melt temperature shift at Tm1, Van't Hoff equation) is 17.3 ± 2.8 µM. For the same compound, on HiDapE [3] (negative shift as the inhibitor increases in concentration, Tm2 78.0 °C), the “shift in melt temperature at Tm2” value is ~−3 °C. In addition, the “shift in melt temperature at Tm1” value on HiDapE [3] (positive shift as the inhibitor increases in concentration, Tm1 50.2 °C) was “+13 °C”.
Take `Cc1cc(S[C@@H](C)C(=O)Nc2ccccn2)n(-c2ccccc2)n1` [Compound 7r, (S)-2-((3-Methyl-1-phenyl-1H-pyrazol-5-yl)thio)-N-(pyridine-2-yl)propanamide]: the inhibition at 100 µM at HiDapE [1] (triplicate) is 14.6 ± 9.5%.
